Article PMC5796995 (Oncotarget, 2017)

Legend:
[1] = tested on: hepatic microsomal enzymes; assay type: in vitro ADME, rat
HepG2 cells [2] = assay type: cell-based, human
HepaRG cells [3] = assay type: cell-based, human
HepG2 cells [4] = assay type: cell-based, human; remark: listed apart in the source
plasma proteins = assay type: in vitro ADME; conditions: human
HepaRG cells [5] = assay type: cell-based, human; remark: listed apart in the source
calf thymus DNA = assay type: biochemical
[6] = tested on: Salmonella typhimurium (TA100); assay type: cell-based
[7] = assay type: physicochemical; conditions: pH 7
Description: Individual standards of AFB1, AFB2a, and AFB2a-Arg were prepared in deionized water (pH 7) at a concentration of 300 ng/mL each. Aliquots of 300 μL of each aqueous standard were added to 300 μL of 1-octanol. Solutions were shaken at 1800 rpm for 5 min and then allowed to equilibrate for an additional 30 minutes. Aqueous and organic layers for each sample were separated and analyzed by HPLC-MS. Octanol-water partition coefficients (P) were calculated as follows: P=[Peak area in octanol fraction]/[Peak area in aqueous fraction]

Caco-2 monolayers = assay type: in vitro ADME
Description: Assay plates containing 12 wells of 21-day Caco-2 monolayers were provided by MB Biosciences. Monolayer integrity was verified using transepithelial electrical resistance measurements (TEER) prior to assay. Treatment solutions of AFB1, AFB2a, and AFB2a-Arg were prepared in the provided Hank's buffered salt solution (HBSS) with a pH of 7.4 and a final DMSO concentration of 0.2%. Caco-2 monolayers were first rinsed with HBSS and then the apical chamber was filled with 500 μL of test compound solution while the basal chamber was filled with 1500 μL of blank HBSS (both chambers were kept at pH 7.4). Plates were incubated at 37°C for 2 hours to allow compound equilibration. Compound concentration was measured at t = 0 hrs and t = 2 hours by HPLC-MS. Permeability (Papp) was calculated as follows: Papp=dQ/dt×1/A×C0
Where dQ/dt is the amount of translocated material over incubation time (nmol/s), A is the area of the insert (cm^2), and C0 is the initial concentration of the test compound applied. […] ER was calculated as follows: ER=Papp(Basal→Apical)/Papp(Apical→Basal)

SMILES | degraded by hepatic microsomal enzymes [1] | number of micronuclei (HepG2 cells [2]) | concentrations that significantly reduced the percentage of viable cells (HepaRG cells [3]) | concentrations that significantly reduced the percentage of viable cells (HepG2 cells [4]) | plasma protein bound (plasma proteins) | number of micronuclei (HepaRG cells [5]) | DNA adduct formation (calf thymus DNA) | number of revertant wells (mutagenic response) [6] | concentrations without increase in micronuclei formation (HepG2 cells [2]) | octanol-water partition coefficient [7] | concentrations without increase in micronuclei formation (HepaRG cells [5]) | efflux ratio, comparison (Caco-2 monolayers) | intestinal permeability (Papp), comparison (Caco-2 monolayers; pH 7.4)
COc1cc2c(c3oc(=O)c4c(c13)CCC4=O)C1C=COC1O2 (stereo not drawn) [AFB1, aflatoxin B1, reference compound] | approximately 75% | significant increase in the number of micronuclei | > 3.75 µM | > 7.5 µM | 82% | significant increase in the number of micronuclei | presence of DNA adduction | significant increase in the number of revertant wells |  |  |  |  | 
COc1cc(O)c(-c2ccn(C(CCCNC(=N)N)C(=O)O)c2)c2oc(=O)c3c(c12)CCC3=O (stereo not drawn) [AFB2a-Arg, aflatoxin B2a-arginine] | not significantly degraded | did not show this genotoxic marker | no significant decreases in cell viability | no significant decreases in cell viability | 99% | did not show this genotoxic marker | no additional peaks were discovered | did not show any significant differences from the vehicle | ≤ 60 µM | lower partition coefficient than AFB1 or AFB2a | ≤ 60 µM | significantly higher efflux ratio than AFB1 | significantly lower than AFB1
